In patent US20240158392A1 (Janssen Biotech, Inc., priority 2021, published 2024):

What follows are compounds tested against SIK2 (Homo sapiens, UniProt Q9H0K1) (assay: SIK2 Enzymatic Assay High Version 2 (High ATP)). Details: not given.
SIK2, sequence (Q9H0K1 whole entry, species assumed): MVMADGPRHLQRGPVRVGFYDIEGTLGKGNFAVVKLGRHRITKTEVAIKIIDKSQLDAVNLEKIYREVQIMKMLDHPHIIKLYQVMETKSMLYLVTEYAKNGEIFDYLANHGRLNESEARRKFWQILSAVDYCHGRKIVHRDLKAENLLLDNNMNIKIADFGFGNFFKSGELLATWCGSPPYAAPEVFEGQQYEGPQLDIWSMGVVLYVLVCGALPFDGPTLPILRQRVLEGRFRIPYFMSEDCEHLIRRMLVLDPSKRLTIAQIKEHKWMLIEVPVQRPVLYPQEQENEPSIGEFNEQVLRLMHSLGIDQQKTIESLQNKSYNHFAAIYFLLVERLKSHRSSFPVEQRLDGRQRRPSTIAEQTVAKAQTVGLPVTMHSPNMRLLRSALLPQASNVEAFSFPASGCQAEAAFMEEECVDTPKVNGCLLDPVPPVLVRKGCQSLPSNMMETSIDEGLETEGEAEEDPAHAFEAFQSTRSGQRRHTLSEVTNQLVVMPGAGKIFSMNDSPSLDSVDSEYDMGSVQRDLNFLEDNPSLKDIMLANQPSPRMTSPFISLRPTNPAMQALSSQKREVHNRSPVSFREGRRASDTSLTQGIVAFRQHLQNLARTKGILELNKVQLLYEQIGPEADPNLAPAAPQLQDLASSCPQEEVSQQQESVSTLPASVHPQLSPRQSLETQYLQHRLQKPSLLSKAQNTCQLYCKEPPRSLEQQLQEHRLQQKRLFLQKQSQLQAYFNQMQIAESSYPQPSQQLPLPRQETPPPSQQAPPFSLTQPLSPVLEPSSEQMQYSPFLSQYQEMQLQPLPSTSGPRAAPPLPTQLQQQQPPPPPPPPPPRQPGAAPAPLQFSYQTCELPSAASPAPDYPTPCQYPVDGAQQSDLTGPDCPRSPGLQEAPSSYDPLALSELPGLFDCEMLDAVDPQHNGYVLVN
Type: biochemical
Procedure: All steps were performed at room temperature. Compounds were pre-plated onto an assay plate using an Echo acoustic dispenser (Labcyte, E550 or E555) at 80 nL per well. Enzyme prepared in assay buffer at 6 nM (2× final concentration) was added at 4 μL per well using the Multidrop Combi (Thermo Fisher—used for all additions in this assay) to the assay plate, spun for 1 min at 1000 rpm (Allegra 6KR Beckman Coulter centrifuge), and incubated with compound for 30 minutes. Assay buffer containing 6 mM ATP and 400 μM HDAC5tide (2× of final concentration for each substrate) was added at 4 μL per well to the assay plate and then spun as above and incubated for 2 hours. […] ADP-Glo Max Reagent (prepared and aliquoted as per manufacturer instructions) was then added at 8 μL per well, spun and incubated for 2 hours. ADP-Glo Max Detection (prepared and aliquoted as per manufacturer instructions) was added at 8 μL per well to the assay plate, which was spun and incubated for 1 hour. The plate is then read on the Pherastar (BMG Labtech) using a luminescence read. Gain is set between 2200-2500.
Cc1cc(-c2ccn3nc(NC(=O)C4CC4)cc3c2)c(OC[C@@H]2CCN2CCF)cn1 [Example 573, N-[5-[5-[[(2S)-1-(2-fluoroethyl)azetidin-2-yl]methoxy]-2-methyl-4-pyridyl]pyrazolo[1,5-a]pyridin-2-yl]cyclopropanecarboxamide] was tested, and the IC50 was 0.074 µM. In the case of Cc1cc(-c2ccn3nc(NC(=O)C4CC4)cc3c2)c(OC[C@H]2CCN2C)cn1 [Example 468, N-[5-[2-methyl-5-[[(2R)-1-methylazetidin-2-yl]methoxy]-4-pyridyl]pyrazolo[1,5-a]pyridin-2-yl]cyclopropanecarboxamide], the IC50 is reported as 0.00813 µM. Cc1cc(-c2ccn3nc(Nc4nn(C)cc4F)cc3c2)c(O[C@H]2C[C@H]3COC[C@@H](C2)N3C)cn1 [Example 118, N-(4-fluoro-1-methyl-1H-pyrazol-3-yl)-5-(2-methyl-5-(((1R,5S,7s)-9-methyl-3-oxa-9-azabicyclo[3.3.1]nonan-7-yl)oxy)pyridin-4-yl)pyrazolo[1,5-a]pyridin-2-amine] was tested, and the IC50 was less than 0.000847 µM. CNC(=O)c1ccnc(Nc2cc3cc(-c4cc(C)ncc4O[C@H]4C[C@H]5COC[C@@H](C4)N5C)ccn3n2)c1 [Example 409, N-methyl-2-[[5-[2-methyl-5-[[(1S,5R,7s)-9-methyl-3-oxa-9-azabicyclo[3.3.1]nonan-7-yl]oxy]-4-pyridyl]pyrazolo[1,5-a]pyridin-2-yl]amino]pyridine-4-carboxamide] showed an IC50 of less than 0.000847 µM. In the case of CC#Cc1cc(-c2ccn3nc(Nc4ccn(C)n4)cc3c2)c(O[C@H]2C[C@H]3COC[C@@H](C2)N3)cn1 [Example 438, N-(1-methylpyrazol-3-yl)-5-[5-[[(1S,5R)-3-oxa-9-azabicyclo[3.3.1]nonan-7-yl]oxy]-2-prop-1-ynyl-4-pyridyl]pyrazolo[1,5-a]pyridin-2-amine], the IC50 is reported as 0.0102 µM. Work on [2H]C([2H])([2H])N1[C@@H]2COC[C@H]1C[C@@H](Oc1cnc(C)cc1-c1ccn3nc(NC(=O)C4CC4)cc3c1)C2 [Example 462, N-[5-[2-methyl-5-[[(1S,5R)-9-(trideuteriomethyl)-3-oxa-9-azabicyclo[3.3.1]nonan-7-yl]oxy]-4-pyridyl]pyrazolo[1,5-a]pyridin-2-yl]cyclopropanecarboxamide] yielded an IC50 of 0.00741 µM. Work on Cc1cc(-c2ccn3nc(Nc4ccccn4)cc3c2)c(OC[C@@H]2CNCCO2)cn1 [Example 130, 5-[2-methyl-5-[[(2S)-morpholin-2-yl]methoxy]-4-pyridyl]-N-(2-pyridyl)pyrazolo[1,5-a]pyridin-2-amine] yielded an IC50 of 0.00429 µM. Cc1cc(-c2ccn3nc(Nc4cc(F)n(C)n4)cc3c2)c(O[C@H]2C[C@H]3COC[C@@H](C2)N3C)cn1 [Example 120, N-(5-fluoro-1-methyl-1H-pyrazol-3-yl)-5-(2-methyl-5-(((1R,5S,7s)-9-methyl-3-oxa-9-azabicyclo[3.3.1]nonan-7-yl)oxy)pyridin-4-yl)pyrazolo[1,5-a]pyridin-2-amine] showed an IC50 of less than 0.000847 µM. Cc1cc(-c2ccn3nc(Nc4cc(C)nc(C)n4)cc3c2)c(OC[C@H]2CCN2C)cn1 [Example 527, N-(2,6-dimethylpyrimidin-4-yl)-5-[2-methyl-5-[[(2R)-1-methylazetidin-2-yl]methoxy]-4-pyridyl]pyrazolo[1,5-a]pyridin-2-amine] was tested, and the IC50 was 0.0081 µM. Cc1cc(-c2cc3cc(NC(=O)C4CC4)nn3cn2)c(O[C@H]2C[C@H]3COC[C@@H](C2)N3C)cn1 [Example 319, N-[5-[2-methyl-5-[[(1S,5R)-9-methyl-3-oxa-9-azabicyclo[3.3.1]nonan-7-yl]oxy]-4-pyridyl]pyrazolo[1,5-c]pyrimidin-2-yl]cyclopropanecarboxamide] showed an IC50 of 0.00194 µM.

Same assay, conditions: enzyme 6 nM, 6 mM ATP and 400 μM HDAC5tide (each 2× final concentration); 30 minutes pre-incubation, 2 hours; ADP-Glo Max luminescence; read-out: SIK2 high ATP IC50 (μM) (Test Example 2)
With Cc1cc(-c2ccn3nc(NC(=O)C4CC4)cc3c2)c(OC[C@H](N)c2ccccc2)cn1 (single isomer, unassigned) [Example 465] the IC50 was 0.0129 µM. Compound Cc1cc(-c2ccn3nc(Nc4cc(C)nc(C)n4)cc3c2)c(OC[C@]2(O)CCCOC2)cn1 (single isomer, unassigned) [Example 608, (*S)-3-[[4-[2-[(2,6-dimethylpyrimidin-4-yl)amino]pyrazolo[1,5-a]pyridin-5-yl]-6-methyl-3-pyridyl]oxymethyl]tetrahydropyran-3-ol] has an IC50 of 0.0922 µM. Cc1cc(-c2ccn3nc(Nc4cc(C)nc(C)n4)cc3c2)c(OC[C@H]2COC3(CCCC3)O2)cn1 (single isomer, unassigned) [Example 544, (*S)—N-(2,6-dimethylpyrimidin-4-yl)-5-[5-(6,9-dioxaspiro[4.4]nonan-8-ylmethoxy)-2-methyl-4-pyridyl]pyrazolo[1,5-a]pyridin-2-amine] showed an IC50 of 0.0147 µM. Cc1cc(-c2ccn3nc(Nc4cc(C)c(=O)n(C5CC5)n4)cc3c2)c(OCC(C)(C)C#N)cn1 [Example 316, 3-[[4-[2-[(1-cyclopropyl-5-methyl-6-oxo-pyridazin-3-yl)amino]pyrazolo[1,5-a]pyridin-5-yl]-6-methyl-3-pyridyl]oxy]-2,2-dimethyl-propanenitrile] was tested, and the IC50 was less than 0.000847 µM. Cc1cc(-c2ccn3nc(Nc4nn(C)c5ncccc45)cc3c2)c(OCC(C)(C)O)cn1 [Example 292, 2-methyl-1-[[6-methyl-4-[2-[(1-methylpyrazolo[3,4-b]pyridin-3-yl)amino]pyrazolo[1,5-a]pyridin-5-yl]-3-pyridyl]oxy]propan-2-ol] showed an IC50 of 0.0187 µM. In the case of Cc1cc(-c2ccn3nc(Nc4cc(C)nc(C)n4)cc3c2)c(OCCC2(C#N)COC2)cn1 [Example 722, 3-[2-[[4-[2-[(2,6-dimethylpyrimidin-4-yl)amino]pyrazolo[1,5-a]pyridin-5-yl]-6-methyl-3-pyridyl]oxy]ethyl]oxetane-3-carbonitrile], the IC50 is reported as 0.01 µM. CC#Cc1cc(-c2ccn3nc(Nc4ccn(C)n4)cc3c2)c(OC[C@H]2OCC[C@@H]2O)cn1 [Example 301, (2R,3S)-2-[[4-[2-[(1-methylpyrazol-3-yl)amino]pyrazolo[1,5-a]pyridin-5-yl]-6-prop-1-ynyl-3-pyridyl]oxymethyl]tetrahydrofuran-3-ol] showed an IC50 of 0.00773 µM. Cc1cc(-c2ccn3nc(Nc4cc(C)nc(C)n4)cc3c2)c(OC2CC(NS(C)(=O)=O)C2)cn1 (stereo not drawn) [Example 579, N-[3-[[4-[2-[(2,6-dimethylpyrimidin-4-yl)amino]pyrazolo[1,5-a]pyridin-5-yl]-6-methyl-3-pyridyl]oxy]cyclobutyl]methanesulfonamide] showed an IC50 of 0.0666 µM. With CC#Cc1cc(-c2ccn3nc(NC(=O)C4CC4)cc3c2)c(OCC2(F)CNC2)cn1 [Example 434, N-[5-[5-[(3-fluoroazetidin-3-yl)methoxy]-2-prop-1-ynyl-4-pyridyl]pyrazolo[1,5-a]pyridin-2-yl]cyclopropanecarboxamide] the IC50 was less than 0.000847 µM. Work on Cc1cc(Nc2cc3cc(-c4cc(OC(F)F)ncc4OCC(C)(C)C#N)ccn3n2)nc(C(C)(C)C)n1 [Example 703, 3-[[4-[2-[(2-tert-butyl-6-methyl-pyrimidin-4-yl)amino]pyrazolo[1,5-a]pyridin-5-yl]-6-(difluoromethoxy)-3-pyridyl]oxy]-2,2-dimethyl-propanenitrile] yielded an IC50 of 0.0699 µM. Compound CC(C)(C#N)COc1cnc(OC(F)F)cc1-c1ccn2nc(Nc3cc4c(cn3)CNCC4)cc2c1 [Example 716, 3-[[6-(difluoromethoxy)-4-[2-(5,6,7,8-tetrahydro-2,7-naphthyridin-3-ylamino)pyrazolo[1,5-a]pyridin-5-yl]-3-pyridyl]oxy]-2,2-dimethyl-propanenitrile] has an IC50 of 0.0118 µM. For Cc1cc(-c2ccn3nc(Nc4cnn(C)c4)cc3c2)c(O[C@H]2CC[C@](C)(O)CC2)cn1 [Example 163, (1r,4r)-1-methyl-4-((6-methyl-4-(2-((1-methyl-1H-pyrazol-4-yl)amino)pyrazolo[1,5-a]pyridin-5-yl)pyridin-3-yl)oxy)cyclohexan-1-ol], the IC50 was 0.00795 µM. COCc1nc(C)cc(Nc2cc3cc(-c4cc(C)ncc4OCC(C)(C)O)ccn3n2)n1 [Example 205, 1-[[4-[2-[[2-(methoxymethyl)-6-methyl-pyrimidin-4-yl]amino]pyrazolo[1,5-a]pyridin-5-yl]-6-methyl-3-pyridyl]oxy]-2-methyl-propan-2-ol] showed an IC50 of 0.0181 µM. With Cc1cc(Nc2cc3cc(-c4cc(OC(F)F)ncc4OC[C@H]4CC(=O)NC4(C)C)ccn3n2)nc(C)n1 (single isomer, unassigned) [Example 739, (*S)-4-[[6-(difluoromethoxy)-4-[2-[(2,6-dimethylpyrimidin-4-yl)amino]pyrazolo[1,5-a]pyridin-5-yl]-3-pyridyl]oxymethyl]-5,5-dimethyl-pyrrolidin-2-one] the IC50 was 0.00119 µM. Compound Cc1cc(-c2ccn3nc(Nc4cc(C)nc(C)n4)cc3c2)c(O[C@H]2CC[C@H](C#N)CC2)cn1 [Example 581, (1r,4r)-4-((4-(2-((2,6-dimethylpyrimidin-4-yl)amino)pyrazolo[1,5-a]pyridin-5-yl)-6-methylpyridin-3-yl)oxy)cyclohexane-1-carbonitrile] has an IC50 of 0.0838 µM. Compound N#CCN1CC[C@@H](COc2cnc(C#N)cc2-c2ccn3nc(NC(=O)C4CC4)cc3c2)C1 [Example 563, N-[5-[2-cyano-5-[[(3R)-1-(cyanomethyl)pyrrolidin-3-yl]methoxy]-4-pyridyl]pyrazolo[1,5-a]pyridin-2-yl]cyclopropanecarboxamide] has an IC50 of 0.038 µM. Cc1cc(Nc2cc3cc(-c4cc(OCC(F)F)ncc4OCC(C)(C)C#N)ccn3n2)nn(C)c1=O [Example 693, 3-[[6-(2,2-difluoroethoxy)-4-[2-[(1,5-dimethyl-6-oxo-pyridazin-3-yl)amino]pyrazolo[1,5-a]pyridin-5-yl]-3-pyridyl]oxy]-2,2-dimethyl-propanenitrile] was tested, and the IC50 was 0.0766 µM.
